Measurements reported in ChEMBL document CHEMBL1201862, “PubChem BioAssay data set” (2004).
Calls of active or inactive are those of the source.

What was measured:
[1] = molecular target: Intestinal-type alkaline phosphatase (Homo sapiens, UniProt P09923); experiment: human intestinal alkaline phosphatase activators, dose response, biochemical, luminescence, uHTS hits (AID 463120); assay type: functional
[2] = molecular target: T1, Peroxisome proliferator-activated receptor gamma (Homo sapiens, UniProt P37231); experiment: competitive ligand displacement at PPARg – biochemical, TR-FRET, LanthaScreen, PPARg partial agonist project, dose response (AID 504446)
T1 sequence (P37231 whole entry): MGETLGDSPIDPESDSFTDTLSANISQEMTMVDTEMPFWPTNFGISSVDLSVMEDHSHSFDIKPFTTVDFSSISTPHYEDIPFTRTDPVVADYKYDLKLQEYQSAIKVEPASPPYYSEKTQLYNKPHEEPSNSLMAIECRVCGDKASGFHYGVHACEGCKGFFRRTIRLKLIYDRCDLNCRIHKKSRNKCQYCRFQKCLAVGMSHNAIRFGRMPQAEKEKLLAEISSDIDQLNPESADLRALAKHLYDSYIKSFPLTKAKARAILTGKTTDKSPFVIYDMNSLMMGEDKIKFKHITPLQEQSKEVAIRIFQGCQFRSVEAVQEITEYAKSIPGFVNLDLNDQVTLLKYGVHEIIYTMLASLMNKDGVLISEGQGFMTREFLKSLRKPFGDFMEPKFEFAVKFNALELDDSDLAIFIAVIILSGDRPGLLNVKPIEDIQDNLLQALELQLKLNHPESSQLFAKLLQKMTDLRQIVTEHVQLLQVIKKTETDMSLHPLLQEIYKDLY

[3] = molecular target: T1, Peroxisome proliferator-activated receptor gamma; experiment: competitive ligand displacement at PPARg – biochemical, fluorescence polarization, PolarScreen, PPARg partial agonist project, dose response (AID 504453)
[4] = molecular target: T1, Peroxisome proliferator-activated receptor gamma; experiment: PPARg transcriptional activation, reporter cells – cell-based, luminescence, assay provider, dose response (AID 504447); assay type: functional
[5] = molecular target: T2, G-protein coupled receptor 35 (Homo sapiens, UniProt Q9HC97); experiment: SAR analysis of Agonists of the GPR35 Receptor using an Image-Based Assay - Set 4. [Related pubchem assays (depositor defined):AID2013, AID2026]; assay type: functional
[6] = molecular target: T3, Cannabinoid receptor 1 (Homo sapiens, UniProt P21554); experiment: SAR analysis of agonists of the Cannabinoid Receptor 1 using an Image-Based Assay - Set 4. [Related pubchem assays (depositor defined):AID2013, AID2026]; assay type: functional
[7] = molecular target: T2, G-protein coupled receptor 35; experiment: SAR analysis of Antagonists of the GPR35 Receptor using an Image-Based Assay - Set 6. [Related pubchem assays (depositor defined):AID2013, AID2026]; assay type: functional
[8] = molecular target: T3, Cannabinoid receptor 1; experiment: SAR analysis of antagonists of the Cannabinoid Receptor 1 using an Image-Based Assay - Set 4. [Related pubchem assays (depositor defined):AID2013, AID2026]; assay type: functional
[9] = molecular target: G-protein coupled receptor 55 (Homo sapiens, UniProt Q9Y2T6); experiment: SAR Analysis of Selective Antagonists of GPR55 using an Image-Based Assay - Set 4. [Related pubchem assays (depositor defined):AID2013, AID2026]; assay type: functional;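 further: antagonism of response to 5 µM lysophosphatidylinositol agonist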
[10] = molecular target: T4, Cannabinoid receptor 2 (Homo sapiens, UniProt P34972); experiment: SAR analysis of antagonists of the Cannabinoid Receptor 2 using an Image-Based Assay - Set 3. [Related pubchem assays (depositor defined):AID2013, AID2026]; assay type: functional
[11] = molecular target: T4, Cannabinoid receptor 2; experiment: SAR analysis of agonists of the Cannabinoid Receptor 2 using an Image-Based Assay - Set 3. [Related pubchem assays (depositor defined):AID2013, AID2026]; assay type: functional
[12] = molecular target: T5, Hexokinase HKDC1 (Homo sapiens, UniProt Q2TB90); experiment: activation of HKDC1 glucose phosphorylation – biochemical, W721R variant, dose response (AID 504730); assay type: functional
T5 sequence (Q2TB90 whole entry): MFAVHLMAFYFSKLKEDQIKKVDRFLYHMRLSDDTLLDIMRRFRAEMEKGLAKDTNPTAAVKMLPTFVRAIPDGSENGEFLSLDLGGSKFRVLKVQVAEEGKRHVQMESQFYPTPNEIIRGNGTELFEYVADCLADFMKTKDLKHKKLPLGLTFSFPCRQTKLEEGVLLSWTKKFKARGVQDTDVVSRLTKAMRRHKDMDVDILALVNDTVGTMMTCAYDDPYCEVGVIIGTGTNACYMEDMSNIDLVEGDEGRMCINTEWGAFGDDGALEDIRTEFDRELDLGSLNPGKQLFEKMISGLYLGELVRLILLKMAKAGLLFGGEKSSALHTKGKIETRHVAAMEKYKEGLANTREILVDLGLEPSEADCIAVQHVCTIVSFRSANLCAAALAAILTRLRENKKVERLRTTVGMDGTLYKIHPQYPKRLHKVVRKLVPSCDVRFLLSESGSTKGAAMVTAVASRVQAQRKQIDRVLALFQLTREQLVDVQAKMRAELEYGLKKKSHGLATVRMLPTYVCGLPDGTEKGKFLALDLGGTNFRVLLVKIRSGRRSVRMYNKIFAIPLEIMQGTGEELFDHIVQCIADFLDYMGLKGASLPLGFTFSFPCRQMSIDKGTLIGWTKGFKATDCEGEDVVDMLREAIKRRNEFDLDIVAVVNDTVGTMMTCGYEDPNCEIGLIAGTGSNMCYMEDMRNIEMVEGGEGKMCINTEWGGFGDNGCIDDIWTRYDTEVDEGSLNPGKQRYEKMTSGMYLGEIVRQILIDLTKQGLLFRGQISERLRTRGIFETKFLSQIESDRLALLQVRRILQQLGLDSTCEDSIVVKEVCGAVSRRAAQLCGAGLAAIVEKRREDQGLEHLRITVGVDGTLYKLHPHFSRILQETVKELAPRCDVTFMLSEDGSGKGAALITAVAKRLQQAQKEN

[13] = molecular target: Hexokinase-1 (Homo sapiens, UniProt P19367); experiment: HK1 enzyme activation by HKDC1 hits – biochemical, selectivity assay for HKDC1 activator project, dose response (AID 504762); assay type: functional
[14] = system: Vero; experiment: viability of Vero cells under compound – cytotoxicity control for flavivirus capping enzyme inhibitors (AID 588742); assay type: functional; settings: Chlorocebus sabaeus
[15] = molecular target: T6, Apoptotic protease-activating factor 1 (Homo sapiens, UniProt O14727); assay type: functional
T6 sequence (O14727 whole entry): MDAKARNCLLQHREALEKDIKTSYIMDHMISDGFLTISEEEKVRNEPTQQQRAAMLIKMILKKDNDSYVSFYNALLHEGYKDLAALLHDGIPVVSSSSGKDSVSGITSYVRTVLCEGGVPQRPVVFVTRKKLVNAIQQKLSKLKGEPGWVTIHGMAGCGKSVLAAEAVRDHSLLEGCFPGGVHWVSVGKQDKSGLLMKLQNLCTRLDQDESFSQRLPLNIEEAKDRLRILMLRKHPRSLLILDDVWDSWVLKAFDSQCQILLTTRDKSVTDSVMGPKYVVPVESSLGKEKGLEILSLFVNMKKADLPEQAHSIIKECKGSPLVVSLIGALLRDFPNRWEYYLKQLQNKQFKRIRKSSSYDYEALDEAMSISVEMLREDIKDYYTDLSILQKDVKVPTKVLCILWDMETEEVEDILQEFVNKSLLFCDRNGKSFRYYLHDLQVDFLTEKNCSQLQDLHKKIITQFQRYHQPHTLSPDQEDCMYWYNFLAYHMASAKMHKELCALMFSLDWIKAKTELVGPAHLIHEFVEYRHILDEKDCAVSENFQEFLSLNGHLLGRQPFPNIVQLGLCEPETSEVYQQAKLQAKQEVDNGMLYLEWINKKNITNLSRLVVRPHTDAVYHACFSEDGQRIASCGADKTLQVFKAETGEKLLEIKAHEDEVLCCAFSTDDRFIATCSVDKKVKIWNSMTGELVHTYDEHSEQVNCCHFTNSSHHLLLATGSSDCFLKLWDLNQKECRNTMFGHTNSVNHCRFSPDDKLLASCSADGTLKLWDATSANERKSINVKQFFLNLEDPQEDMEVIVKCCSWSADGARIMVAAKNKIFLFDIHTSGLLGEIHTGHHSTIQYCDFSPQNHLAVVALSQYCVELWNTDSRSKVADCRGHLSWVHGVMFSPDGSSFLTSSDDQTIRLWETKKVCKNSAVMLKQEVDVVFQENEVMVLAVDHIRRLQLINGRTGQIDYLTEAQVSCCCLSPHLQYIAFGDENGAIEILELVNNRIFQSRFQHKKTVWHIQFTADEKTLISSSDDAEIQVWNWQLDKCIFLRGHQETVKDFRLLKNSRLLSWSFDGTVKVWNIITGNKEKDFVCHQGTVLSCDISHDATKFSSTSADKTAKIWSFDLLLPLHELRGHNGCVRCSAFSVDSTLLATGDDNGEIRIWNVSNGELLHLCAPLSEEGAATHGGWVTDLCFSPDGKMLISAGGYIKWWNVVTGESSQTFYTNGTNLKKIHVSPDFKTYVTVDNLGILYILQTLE

[16] = molecular target: T7, Protein RecA (Mycobacterium tuberculosis, UniProt P9WHJ3); experiment: Fluorescence Cell-Free Homogeneous Dose Retest to Identify Inhibitors of RecA-Intein Splicing Activity. [Related pubchem assays (depositor defined):AID2097, AID2223, AID489010, AID492950]; assay type: functional
T7 sequence (P9WHJ3 whole entry): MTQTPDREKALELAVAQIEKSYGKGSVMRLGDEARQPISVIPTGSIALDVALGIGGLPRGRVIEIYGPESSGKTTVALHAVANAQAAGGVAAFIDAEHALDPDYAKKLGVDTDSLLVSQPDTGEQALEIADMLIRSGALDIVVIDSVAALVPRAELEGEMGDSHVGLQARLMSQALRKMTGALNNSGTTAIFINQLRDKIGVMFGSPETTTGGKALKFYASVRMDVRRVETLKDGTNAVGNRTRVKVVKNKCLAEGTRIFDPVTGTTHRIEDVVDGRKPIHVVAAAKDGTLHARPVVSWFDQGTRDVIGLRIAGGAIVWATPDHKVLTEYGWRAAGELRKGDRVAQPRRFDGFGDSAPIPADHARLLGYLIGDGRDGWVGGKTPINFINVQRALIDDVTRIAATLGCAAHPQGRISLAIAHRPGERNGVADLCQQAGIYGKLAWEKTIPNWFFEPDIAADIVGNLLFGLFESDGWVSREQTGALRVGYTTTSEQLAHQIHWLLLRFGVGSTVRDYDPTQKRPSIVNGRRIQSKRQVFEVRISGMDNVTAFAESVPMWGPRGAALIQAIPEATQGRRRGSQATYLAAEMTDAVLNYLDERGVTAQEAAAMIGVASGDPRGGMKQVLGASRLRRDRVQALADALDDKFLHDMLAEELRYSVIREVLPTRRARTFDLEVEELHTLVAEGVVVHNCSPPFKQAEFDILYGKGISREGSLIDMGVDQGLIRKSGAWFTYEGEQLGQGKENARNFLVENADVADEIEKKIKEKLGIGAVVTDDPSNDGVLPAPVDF

[17] = molecular target: Genome polyprotein (dengue virus type 2, UniProt P29990); experiment: flavivirus cap methylation enzyme inhibition – biochemical, confirmation dose response, primary screen (AID 588689); assay type: functional
Sequence of Genome polyprotein (P29990 2492-3391 limits assumed): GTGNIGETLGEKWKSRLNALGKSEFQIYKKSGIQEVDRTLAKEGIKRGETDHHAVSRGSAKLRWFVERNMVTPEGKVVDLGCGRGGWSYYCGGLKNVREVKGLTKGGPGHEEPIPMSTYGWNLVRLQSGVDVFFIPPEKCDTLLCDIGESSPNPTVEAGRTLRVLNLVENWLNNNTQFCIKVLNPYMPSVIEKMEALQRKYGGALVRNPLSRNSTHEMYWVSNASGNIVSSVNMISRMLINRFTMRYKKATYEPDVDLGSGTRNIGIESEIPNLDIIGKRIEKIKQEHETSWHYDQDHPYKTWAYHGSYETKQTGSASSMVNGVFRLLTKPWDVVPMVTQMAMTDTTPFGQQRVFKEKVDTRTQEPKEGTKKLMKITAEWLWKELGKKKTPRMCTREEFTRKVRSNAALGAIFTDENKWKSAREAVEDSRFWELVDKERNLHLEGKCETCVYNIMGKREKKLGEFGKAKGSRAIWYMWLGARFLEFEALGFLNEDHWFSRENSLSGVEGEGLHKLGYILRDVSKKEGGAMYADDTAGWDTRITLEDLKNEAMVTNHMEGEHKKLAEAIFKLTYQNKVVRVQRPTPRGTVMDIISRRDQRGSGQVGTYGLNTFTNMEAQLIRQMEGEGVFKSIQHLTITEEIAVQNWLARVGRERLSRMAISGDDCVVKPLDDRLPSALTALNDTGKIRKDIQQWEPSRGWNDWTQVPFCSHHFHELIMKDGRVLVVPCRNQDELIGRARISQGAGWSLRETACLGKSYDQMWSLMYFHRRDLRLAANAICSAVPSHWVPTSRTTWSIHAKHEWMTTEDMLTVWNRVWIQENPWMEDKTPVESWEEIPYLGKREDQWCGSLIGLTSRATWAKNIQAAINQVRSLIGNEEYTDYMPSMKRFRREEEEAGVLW

T4 sequence (P34972 whole entry): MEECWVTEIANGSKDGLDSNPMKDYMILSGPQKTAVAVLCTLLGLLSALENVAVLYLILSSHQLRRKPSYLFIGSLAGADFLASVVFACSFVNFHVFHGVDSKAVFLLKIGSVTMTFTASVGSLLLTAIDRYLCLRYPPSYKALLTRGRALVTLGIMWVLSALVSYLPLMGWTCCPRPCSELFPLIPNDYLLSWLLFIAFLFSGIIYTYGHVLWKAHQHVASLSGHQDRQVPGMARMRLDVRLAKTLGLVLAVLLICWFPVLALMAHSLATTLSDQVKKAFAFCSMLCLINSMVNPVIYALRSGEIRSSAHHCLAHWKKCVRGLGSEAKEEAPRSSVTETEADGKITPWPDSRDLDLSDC
T2 sequence (Q9HC97 whole entry): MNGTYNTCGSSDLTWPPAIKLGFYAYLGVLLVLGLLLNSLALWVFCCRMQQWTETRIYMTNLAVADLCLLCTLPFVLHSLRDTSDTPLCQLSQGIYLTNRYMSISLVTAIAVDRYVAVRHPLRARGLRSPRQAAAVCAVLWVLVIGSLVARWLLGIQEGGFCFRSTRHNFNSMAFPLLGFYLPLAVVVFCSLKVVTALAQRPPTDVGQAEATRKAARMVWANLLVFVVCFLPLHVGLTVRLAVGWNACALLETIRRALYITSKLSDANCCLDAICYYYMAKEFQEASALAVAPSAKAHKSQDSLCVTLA
T3 sequence (P21554 whole entry): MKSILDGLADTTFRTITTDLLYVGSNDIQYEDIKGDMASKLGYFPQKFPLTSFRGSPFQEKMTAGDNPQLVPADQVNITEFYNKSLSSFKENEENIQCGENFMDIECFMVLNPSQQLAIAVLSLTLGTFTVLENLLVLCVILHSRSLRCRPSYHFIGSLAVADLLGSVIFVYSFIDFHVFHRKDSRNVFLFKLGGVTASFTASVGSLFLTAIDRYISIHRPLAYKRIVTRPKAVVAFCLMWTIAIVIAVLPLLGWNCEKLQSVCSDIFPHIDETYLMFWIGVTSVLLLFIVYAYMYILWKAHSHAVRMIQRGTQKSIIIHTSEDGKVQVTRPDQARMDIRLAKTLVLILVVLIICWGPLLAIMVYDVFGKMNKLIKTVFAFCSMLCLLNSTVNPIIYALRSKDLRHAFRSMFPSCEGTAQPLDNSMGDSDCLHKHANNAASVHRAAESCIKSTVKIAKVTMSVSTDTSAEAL
Sequence of Intestinal-type alkaline phosphatase (P09923 whole entry): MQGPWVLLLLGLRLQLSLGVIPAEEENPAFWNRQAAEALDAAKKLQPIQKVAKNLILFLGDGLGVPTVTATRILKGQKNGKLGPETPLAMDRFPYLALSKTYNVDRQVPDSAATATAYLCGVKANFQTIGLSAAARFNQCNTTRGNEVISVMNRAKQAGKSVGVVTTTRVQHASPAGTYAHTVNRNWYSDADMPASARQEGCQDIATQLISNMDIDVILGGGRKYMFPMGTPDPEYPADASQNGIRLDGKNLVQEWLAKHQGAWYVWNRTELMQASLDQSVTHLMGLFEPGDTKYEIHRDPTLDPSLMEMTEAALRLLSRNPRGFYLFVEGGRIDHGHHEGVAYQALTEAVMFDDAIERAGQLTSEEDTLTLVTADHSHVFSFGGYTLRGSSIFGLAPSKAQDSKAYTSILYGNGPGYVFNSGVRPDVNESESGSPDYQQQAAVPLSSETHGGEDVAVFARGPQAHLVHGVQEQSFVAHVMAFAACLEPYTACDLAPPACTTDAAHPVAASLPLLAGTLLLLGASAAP
Sequence of G-protein coupled receptor 55 (Q9Y2T6 whole entry): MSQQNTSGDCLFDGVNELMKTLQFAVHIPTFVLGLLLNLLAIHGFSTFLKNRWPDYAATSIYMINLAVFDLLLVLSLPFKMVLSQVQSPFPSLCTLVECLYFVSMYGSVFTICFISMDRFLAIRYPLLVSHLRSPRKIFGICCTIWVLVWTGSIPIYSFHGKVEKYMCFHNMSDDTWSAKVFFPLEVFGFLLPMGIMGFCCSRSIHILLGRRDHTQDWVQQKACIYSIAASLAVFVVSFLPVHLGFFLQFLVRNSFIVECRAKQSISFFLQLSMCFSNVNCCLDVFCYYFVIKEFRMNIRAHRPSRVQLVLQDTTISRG
Sequence of Hexokinase-1 (P19367 whole entry): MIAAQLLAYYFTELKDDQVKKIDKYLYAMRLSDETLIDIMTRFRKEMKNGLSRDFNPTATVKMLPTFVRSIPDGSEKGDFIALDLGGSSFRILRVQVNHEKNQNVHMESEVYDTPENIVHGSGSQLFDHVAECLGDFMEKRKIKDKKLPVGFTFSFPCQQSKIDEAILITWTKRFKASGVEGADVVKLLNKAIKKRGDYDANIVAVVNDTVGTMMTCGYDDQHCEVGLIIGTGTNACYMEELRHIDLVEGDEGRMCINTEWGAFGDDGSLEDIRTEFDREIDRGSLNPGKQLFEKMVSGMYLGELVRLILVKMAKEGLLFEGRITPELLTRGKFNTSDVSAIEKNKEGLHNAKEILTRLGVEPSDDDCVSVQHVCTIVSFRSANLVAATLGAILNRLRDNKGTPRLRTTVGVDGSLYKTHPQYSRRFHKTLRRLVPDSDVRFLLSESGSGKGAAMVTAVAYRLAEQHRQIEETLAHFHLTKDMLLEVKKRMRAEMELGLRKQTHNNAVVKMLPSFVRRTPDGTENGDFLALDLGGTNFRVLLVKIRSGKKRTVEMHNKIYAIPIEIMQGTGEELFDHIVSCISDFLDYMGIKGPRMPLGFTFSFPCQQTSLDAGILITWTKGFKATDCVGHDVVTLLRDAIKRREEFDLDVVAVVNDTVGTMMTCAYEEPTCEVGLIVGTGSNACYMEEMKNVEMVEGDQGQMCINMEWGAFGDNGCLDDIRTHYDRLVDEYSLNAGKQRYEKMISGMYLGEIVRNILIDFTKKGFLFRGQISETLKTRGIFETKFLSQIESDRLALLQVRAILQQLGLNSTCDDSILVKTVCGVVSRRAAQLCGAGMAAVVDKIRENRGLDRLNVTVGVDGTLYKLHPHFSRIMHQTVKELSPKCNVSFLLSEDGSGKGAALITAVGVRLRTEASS

CCCCCCCn1c(=N)n(CC(=O)c2ccco2)c2ccccc21
EC50 [1]: > 100 µM (inactive)

CC(=O)N1N=C(c2ccccc2)CC1c1cn(Cc2ccccc2)c2ccccc12 (configuration not stated)
IC50 [2]: 0.748 µM (active)
IC50 [3]: 2 µM (active)
EC50 [4]: 1.2 µM (active)

Cc1nc(N2CCN(C(=O)NCc3ccccc3)CC2)c2c3c(sc2n1)CCCC3
EC50 [5]: > 32 µM (inactive)
EC50 [6]: > 32 µM (inactive)
IC50 [7]: > 32 µM (inactive)
IC50 [8]: 6.66 µM (active)
IC50 [9]: 13 µM (inactive)
IC50 [10]: > 15.2 µM (inactive)
EC50 [11]: > 32 µM (inactive)

O=C1C(C2=C(O)c3ccccc3C2=O)=Nc2ccccc21
EC50 [12]: 24.7 µM (inactive)
EC50 [13]: 37.1 µM (inactive)
CC50 [14]: 26.6 µM (active)
IC50 [15]: 1.31 µM (active)
EC50 [16]: 1.6 µM (active)
IC50 [17]: 56.9 µM (active)
